Reference: patent US10722442B2, “Skin brightening composition comprising novel ginsenoside” (AMOREPACIFIC CORPORATION, priority 2018, dated 2020)

Legend:
[1] = target: Mushroom-derived tyrosinase; assay: Inhibitory effect of tyrosinase activity; assay type: biochemical; conditions: L-tyrosine substrate, 20 minutes at 37° C., absorbance at 490 nm
Protocol: In order to compare the skin brightening effects of ginsenosides isolated from the ginseng seed extract, the inhibitory effect of the tyrosinase activity was evaluated as follows. Mushroom-derived tyrosinase and tyrosine were obtained from Sigma Chemical. […] Tyrosinase activity was assessed by measuring the absorbance at 490 nm using a microplate reader (Bio-Rad 3550, Richmond, Calif., U.S.A.) after an enzyme reaction for 20 minutes at 37° C.

[2] = system: Mel-Ab cell line; assay: Melanin production inhibition (Dooley's method); assay type: cell-based, C57BL/6; conditions: Mel-Ab cells, after 5 days, absorbance at 400 nm
[3] = system: SH-SY5Y cells; assay: Cytotoxicity, Cell Counting Kit (CCK)-8; assay type: cell-based; conditions: SH-SY5Y cells, 0.1, 1, 5, 10, 20, and 50 μM; up to 50 μM
Protocol: The cell growth in the presence of novel ginsenoside GS #10, which is an example of the present disclosure, was evaluated using Cell Counting Kit (CCK)-8, in order to exclude the possibility that ginsenosides may affect skin brightening efficacy through cytotoxic activity.
Specifically, the viability of SH-SY5Y cells was assessed using CCK-8 assay according to manufacturer's instructions (Dojindo, Md., USA). CCK-8, a cell viability detection reagent, was added to the cultured SH-SY5Y cells and incubated for 2 hours in a wet atmosphere. Then, absorbance was measured at 450 nm, and the cell viability was marked as a percentage (%) of the absolute optical density of each sample relative to the untreated sample. At this time, the concentration of the novel ginsenoside GS #10, which is an example of the present disclosure, contained in the medium in which the cells were cultured was 0.1, 1, 5, 10, 20, and 50 μM, respectively.

[4] = system: healthy adult subjects; assay: Human repeated insult patch tests (HRIPT), skin accumulated irritation; assay type: in vivo; parameters: key to reactivity (skin response, ICDRG criteria): −: Negative (no response); ±: Suspicious or slight erythema, or the like; +: Weak reactions (without vesicles), erythema, papules; ++: Severe reactions (with vesicles), erythema, papules, vesicles; +++: Strong reaction, bulla reaction; conditions: for Average reactivity: safe when less than 3
Protocol: Human repeated insult patch tests (HRIPT) were performed to confirm whether the novel ginsenoside GS #10, which is an example of the present disclosure, has a skin accumulated irritation and to calculate a concentration range that can be used on the skin.
Specifically, 15 healthy adult subjects were randomly selected, and the test composition containing 0.5 wt %, 1 wt %, and 3 wt % of the compound (the skin composition comprising an emulsifier, a stabilizer, purified water, etc. in addition to the compound) was added dropwise by 20 μl per chamber (IQ chamber, Epitest Ltd, Finland). After 24 hours from patching the upper right part of the back of a subject, it was replaced with the new patch. In this way, the skin reactions were examined before and after each patch while performing nine patches three times a week for a total of three weeks. The skin reactions were confirmed up to 48 hours after removing the final patch, and the average reactivity was obtained.
The skin response was determined according to the criteria of the International Contact Dermatitis Research Group (ICDRG). […] This means that the novel ginsenoside GS #10, which is an example of the present disclosure, has no skin accumulated irritation and can be used safely on the skin.

Structure (SMILES): CC1(C)C(=O)CC[C@@]2(C)C1[C@@H](O[C@H]1OC(CO)[C@H](O)C(O)C1O[C@H]1OC(CO)[C@H](O)C(O)C1O)C[C@]1(C)C2C[C@@H](O)C2C([C@]3(C)CC[C@H](C(C)(C)O)O3)CC[C@]21C (stereo partly drawn) [GS#10, (20S,24R)-6-O-β-D-glucopyranosyl(1→2)-β-D-glucopyranoside-dammar-3-one-20,24-epoxy-6a,12b,25-triol]
- IC50 (ppm), inhibitory effect of tyrosinase activity [1]: 15 ppm
- IC50 (ppm), concentration required to reduce melanin production in melanocytes by half [2]: 22 ppm
- cytotoxicity (cell viability) [3]: did not exhibit cytotoxicity
- Number of subjects with ±, +, or ++ reactivity ([4]; 0.5 wt %, Eight times, 1st line (±)): 0 person
- Number of subjects with ±, +, or ++ reactivity ([4]; 0.5 wt %, Eight times, 2nd line (+)): 0 person
- Number of subjects with ±, +, or ++ reactivity ([4]; 0.5 wt %, Eight times, 3rd line (++)): 0 person
- Number of subjects with ±, +, or ++ reactivity ([4]; 0.5 wt %, Five times, 1st line (±)): 0 person
- Number of subjects with ±, +, or ++ reactivity ([4]; 0.5 wt %, Five times, 2nd line (+)): 0 person
- Number of subjects with ±, +, or ++ reactivity ([4]; 0.5 wt %, Five times, 3rd line (++)): 0 person
- Number of subjects with ±, +, or ++ reactivity ([4]; 0.5 wt %, Four times, 1st line (±)): 0 person
- Number of subjects with ±, +, or ++ reactivity ([4]; 0.5 wt %, Four times, 2nd line (+)): 0 person
- Number of subjects with ±, +, or ++ reactivity ([4]; 0.5 wt %, Four times, 3rd line (++)): 0 person
- Number of subjects with ±, +, or ++ reactivity ([4]; 0.5 wt %, Nine times, 1st line (±)): 0 person
- Number of subjects with ±, +, or ++ reactivity ([4]; 0.5 wt %, Nine times, 2nd line (+)): 0 person
- Number of subjects with ±, +, or ++ reactivity ([4]; 0.5 wt %, Nine times, 3rd line (++)): 0 person
- Number of subjects with ±, +, or ++ reactivity ([4]; 0.5 wt %, Once, 1st line (±)): 0 person
- Number of subjects with ±, +, or ++ reactivity ([4]; 0.5 wt %, Once, 2nd line (+)): 0 person
- Number of subjects with ±, +, or ++ reactivity ([4]; 0.5 wt %, Once, 3rd line (++)): 0 person
- Number of subjects with ±, +, or ++ reactivity ([4]; 0.5 wt %, Seven times, 1st line (±)): 0 person
- Number of subjects with ±, +, or ++ reactivity ([4]; 0.5 wt %, Seven times, 2nd line (+)): 0 person
- Number of subjects with ±, +, or ++ reactivity ([4]; 0.5 wt %, Seven times, 3rd line (++)): 0 person
- Number of subjects with ±, +, or ++ reactivity ([4]; 0.5 wt %, Six times, 1st line (±)): 0 person
- Number of subjects with ±, +, or ++ reactivity ([4]; 0.5 wt %, Six times, 2nd line (+)): 0 person
- Number of subjects with ±, +, or ++ reactivity ([4]; 0.5 wt %, Six times, 3rd line (++)): 0 person
- Number of subjects with ±, +, or ++ reactivity ([4]; 0.5 wt %, Three times, 1st line (±)): 0 person
- Number of subjects with ±, +, or ++ reactivity ([4]; 0.5 wt %, Three times, 2nd line (+)): 0 person
- Number of subjects with ±, +, or ++ reactivity ([4]; 0.5 wt %, Three times, 3rd line (++)): 0 person
- Average reactivity ([4]; 0.5 wt %): 0
- Number of subjects with ±, +, or ++ reactivity ([4]; 0.5 wt %, twice, 1st line (±)): 0 person
- Number of subjects with ±, +, or ++ reactivity ([4]; 0.5 wt %, twice, 2nd line (+)): 0 person
- Number of subjects with ±, +, or ++ reactivity ([4]; 0.5 wt %, twice, 3rd line (++)): 0 person
- Number of subjects with ±, +, or ++ reactivity ([4]; 1 wt %, Eight times, 1st line (±)): 0 person
- Number of subjects with ±, +, or ++ reactivity ([4]; 1 wt %, Eight times, 2nd line (+)): 0 person
- Number of subjects with ±, +, or ++ reactivity ([4]; 1 wt %, Eight times, 3rd line (++)): 0 person
- Number of subjects with ±, +, or ++ reactivity ([4]; 1 wt %, Five times, 1st line (±)): 0 person
- Number of subjects with ±, +, or ++ reactivity ([4]; 1 wt %, Five times, 2nd line (+)): 0 person
- Number of subjects with ±, +, or ++ reactivity ([4]; 1 wt %, Five times, 3rd line (++)): 0 person
- Number of subjects with ±, +, or ++ reactivity ([4]; 1 wt %, Four times, 1st line (±)): 0 person
- Number of subjects with ±, +, or ++ reactivity ([4]; 1 wt %, Four times, 2nd line (+)): 0 person
- Number of subjects with ±, +, or ++ reactivity ([4]; 1 wt %, Four times, 3rd line (++)): 0 person
- Number of subjects with ±, +, or ++ reactivity ([4]; 1 wt %, Nine times, 1st line (±)): 0 person
- Number of subjects with ±, +, or ++ reactivity ([4]; 1 wt %, Nine times, 2nd line (+)): 0 person
- Number of subjects with ±, +, or ++ reactivity ([4]; 1 wt %, Nine times, 3rd line (++)): 0 person
- Number of subjects with ±, +, or ++ reactivity ([4]; 1 wt %, Once, 1st line (±)): 0 person
- Number of subjects with ±, +, or ++ reactivity ([4]; 1 wt %, Once, 2nd line (+)): 0 person
- Number of subjects with ±, +, or ++ reactivity ([4]; 1 wt %, Once, 3rd line (++)): 0 person
- Number of subjects with ±, +, or ++ reactivity ([4]; 1 wt %, Seven times, 1st line (±)): 0 person
- Number of subjects with ±, +, or ++ reactivity ([4]; 1 wt %, Seven times, 2nd line (+)): 0 person
- Number of subjects with ±, +, or ++ reactivity ([4]; 1 wt %, Seven times, 3rd line (++)): 0 person
- Number of subjects with ±, +, or ++ reactivity ([4]; 1 wt %, Six times, 1st line (±)): 0 person
- Number of subjects with ±, +, or ++ reactivity ([4]; 1 wt %, Six times, 2nd line (+)): 0 person
- Number of subjects with ±, +, or ++ reactivity ([4]; 1 wt %, Six times, 3rd line (++)): 0 person
- Number of subjects with ±, +, or ++ reactivity ([4]; 1 wt %, Three times, 1st line (±)): 0 person
- Number of subjects with ±, +, or ++ reactivity ([4]; 1 wt %, Three times, 2nd line (+)): 0 person
- Number of subjects with ±, +, or ++ reactivity ([4]; 1 wt %, Three times, 3rd line (++)): 0 person
- Average reactivity ([4]; 1 wt %): 0
- Number of subjects with ±, +, or ++ reactivity ([4]; 1 wt %, twice, 1st line (±)): 0 person
- Number of subjects with ±, +, or ++ reactivity ([4]; 1 wt %, twice, 2nd line (+)): 0 person
- Number of subjects with ±, +, or ++ reactivity ([4]; 1 wt %, twice, 3rd line (++)): 0 person
- Number of subjects with ±, +, or ++ reactivity ([4]; 3 wt %, Eight times, 1st line (±)): 0 person
- Number of subjects with ±, +, or ++ reactivity ([4]; 3 wt %, Eight times, 2nd line (+)): 0 person
- Number of subjects with ±, +, or ++ reactivity ([4]; 3 wt %, Eight times, 3rd line (++)): 0 person
- Number of subjects with ±, +, or ++ reactivity ([4]; 3 wt %, Five times, 1st line (±)): 0 person
- Number of subjects with ±, +, or ++ reactivity ([4]; 3 wt %, Five times, 2nd line (+)): 0 person
- Number of subjects with ±, +, or ++ reactivity ([4]; 3 wt %, Five times, 3rd line (++)): 0 person
- Number of subjects with ±, +, or ++ reactivity ([4]; 3 wt %, Four times, 1st line (±)): 0 person
- Number of subjects with ±, +, or ++ reactivity ([4]; 3 wt %, Four times, 2nd line (+)): 0 person
- Number of subjects with ±, +, or ++ reactivity ([4]; 3 wt %, Four times, 3rd line (++)): 0 person
- Number of subjects with ±, +, or ++ reactivity ([4]; 3 wt %, Nine times, 1st line (±)): 0 person
- Number of subjects with ±, +, or ++ reactivity ([4]; 3 wt %, Nine times, 2nd line (+)): 0 person
- Number of subjects with ±, +, or ++ reactivity ([4]; 3 wt %, Nine times, 3rd line (++)): 0 person
- Number of subjects with ±, +, or ++ reactivity ([4]; 3 wt %, Once, 1st line (±)): 0 person
- Number of subjects with ±, +, or ++ reactivity ([4]; 3 wt %, Once, 2nd line (+)): 0 person
- Number of subjects with ±, +, or ++ reactivity ([4]; 3 wt %, Once, 3rd line (++)): 0 person
- Number of subjects with ±, +, or ++ reactivity ([4]; 3 wt %, Seven times, 1st line (±)): 0 person
- Number of subjects with ±, +, or ++ reactivity ([4]; 3 wt %, Seven times, 2nd line (+)): 0 person
- Number of subjects with ±, +, or ++ reactivity ([4]; 3 wt %, Seven times, 3rd line (++)): 0 person
- Number of subjects with ±, +, or ++ reactivity ([4]; 3 wt %, Six times, 1st line (±)): 0 person
- Number of subjects with ±, +, or ++ reactivity ([4]; 3 wt %, Six times, 2nd line (+)): 0 person
- Number of subjects with ±, +, or ++ reactivity ([4]; 3 wt %, Six times, 3rd line (++)): 0 person
- Number of subjects with ±, +, or ++ reactivity ([4]; 3 wt %, Three times, 1st line (±)): 0 person
- Number of subjects with ±, +, or ++ reactivity ([4]; 3 wt %, Three times, 2nd line (+)): 0 person
- Number of subjects with ±, +, or ++ reactivity ([4]; 3 wt %, Three times, 3rd line (++)): 0 person
- Average reactivity ([4]; 3 wt %): 0
- Number of subjects with ±, +, or ++ reactivity ([4]; 3 wt %, twice, 1st line (±)): 0 person
- Number of subjects with ±, +, or ++ reactivity ([4]; 3 wt %, twice, 2nd line (+)): 0 person
- Number of subjects with ±, +, or ++ reactivity ([4]; 3 wt %, twice, 3rd line (++)): 0 person
- reactivity (skin response, ICDRG criteria) ([4]; all content range (0.5 wt %, 1 wt %, 3 wt %), nine patches in three weeks): −
